In this assay the target is HSP90 (Homo sapiens, UniProt P07900). Nature of the assay: HSP90 inhibition (HSP90 IC50). The format is biochemical.
As a reminder, the IC50 is the concentration that gives 50% inhibition. A lower IC50 goes with inhibition by little substance. The compound `CCNc1c(C)c(C(=O)NC2CC3CCC(C2)N3c2ccc(C(=O)N[C@@H](C)c3ccc(N4CCN(C)CC4)cc3)cn2)cc(C)c1C(N)=O` (stereo partly drawn) [3-(ethylamino)-2,5-dimethyl-N1-(8-{5-[({(1S)-1-[4-(4-methylpiperazin-1-yl)phenyl]ethyl}amino)carbonyl]pyridin-2-yl}-8-azabicyclo[3.2.1]oct-3-endo-yl)benzene-1,4-dicarboxamide] came in with a 50% inhibitory concentration (IC50) of 2 to 10 µM.
`NC(=O)c1ccc(N2[C@@H]3CC[C@H]2C[C@@H](NC(=O)c2ccc(CO)cc2)C3)nc1` [6-[3-endo-({[4-(hydroxymethyl)phenyl]carbonyl}amino)-8-azabicyclo[3.2.1]oct-8-yl]pyridine-3-carboxamide] yielded an IC50 of less than 0.5 µM.
To `C[C@H](NC(=O)c1ccc(N2[C@@H]3CC[C@H]2C[C@@H](NC(=O)c2ccc(C(N)=O)c(NC4CCN(S(C)(=O)=O)CC4)c2)C3)nc1)c1ccc(N2CCN(C)CC2)cc1` [N4-(8-{5-[({(1S)-1-[4-(4-methylpiperazin-1-yl)phenyl]ethyl}amino)carbonyl]pyridin-n-2-yl}-8-azabicyclo[3.2.1]oct-3-endo-yl)-2-{[1-(methylsulfonyl)piperidin-4-yl]amino}benzene-1,4-dicarboxamide] belongs less than 0.5 µM; to `CN1CCN(CCC(=O)c2ccc(N3[C@@H]4CC[C@H]3C[C@@H](NC(=O)c3ccc(C(N)=O)c(NCC5CC5)c3)C4)nc2)CC1` [2-[(cyclopropylmethyl)amino]-N4-(8-{5-[3-(4-methylpiperazin-1-yl)propanoyl]pyridin-2-yl}-8-azabicyclo[3.2.1]oct-3-endo-yl)benzene-1,4-dicarboxamide], less than 0.5 µM; to `CCN1CC(NC(=O)c2ccc(N3[C@@H]4CC[C@H]3C[C@@H](NC(=O)c3cc(C)c(C(N)=O)cc3C)C4)nc2)C1` [N-[8-(5-{[(1-ethylazetidin-3-yl)amino]carbonyl}pyridin-2-yl)-8-azabicyclo[3.2.1]oct-3-endo-yl]-2,5-dimethylbenzene-1,4-dicarboxamide], less than 0.5 µM.
The result for `COc1cccc(C(=O)NC2CC3CCC(C2)N3c2ccc(C(=O)NC(C)c3ccc(C4CCNCC4)cc3F)cn2)c1C` (stereo not drawn) [N-[1-(2-fluoro-4-piperidin-4-ylphenyl)ethyl]-6-[3-endo-({[2-methyl-3-(methyloxy)phenyl]carbonyl}amino)-8-azabicyclo[3.2.1]oct-8-yl]pyridine-3-carboxamide] reads less than 0.5 µM; that for `Cc1cc(N)ccc1C(=O)N[C@H]1C[C@H]2CC[C@@H](C1)N2c1ccc(C(N)=O)cn1` [6-(3-endo-{[(4-amino-2-methylphenyl)carbonyl]amino}-8-azabicyclo[3.2.1]oct-8-yl)pyridine-3-carboxamide], 2 to 10 µM; that for `COc1cccc(C(=O)N[C@H]2C[C@H]3CC[C@@H](C2)N3c2ccc(C(=O)NCc3ccc(C)cc3)cn2)c1C` [6-[3-endo-({(2-methyl-3-(methyloxy)phenyl]carbonyl}amino)-8-azabicyclo[3.2.1]oct-8-yl]-N-[(4-methylphenyl)methyl]pyridine-3-carboxamide], less than 0.5 µM.
To `CCC(CC)Nc1cc(C(=O)NC2CC3CCC(C2)N3c2ccc(C(=O)N[C@@H]3CCNC3)cn2)ccc1C(N)=O` (stereo partly drawn) [2-[(1-ethylpropyl)amino]-N4-[8-(5-{[(3R)-pyrrolidin-3-ylamino]carbonyl}pyridin-2-yl)-8-azabicyclo[3.2.1]oct-3-endo-yl]benzene-1,4-dicarboxamide] belongs less than 0.5 µM; to `Cc1cc(C(N)=O)c(NC(C(C)C)C(F)(F)F)cc1C(=O)N[C@H]1C[C@H]2CC[C@@H](C1)N2c1ccc(C(=O)C2CC2)cn1` (stereo partly drawn) [N-{8-[5-(cyclopropylcarbonyl)pyridin-2-yl]-8-azabicyclo[3.2.1]oct-3-endo-yl}-2-methyl-5-{[2-methyl-1-(trifluoromethyl)propyl]amino}benzene-1,4-dicarboxamide], less than 0.5 µM; to `CC[C@H](NC(=O)c1ccc(N2C3CCC2CC(NC(=O)c2cccc(OC)c2C)C3)nc1)c1ccccc1` (stereo partly drawn) [6-[3-endo-({[2-methyl-3-(methyloxy)phenyl]carbonyl}amino)-8-azabicyclo[3.2.1]oct-8-yl]-N-[(1S)-1-phenylpropyl]pyridine-3-carboxamide], 0.5 to 0.999 µM.
As to `NC(=O)c1ccc(C(=O)N[C@H]2C[C@H]3CC[C@@H](C2)N3c2ccc(C(=O)C3CC3)cn2)cc1NC1CCCC1`, the half-inhibitory concentration (IC50) was less than 0.5 µM.
The compound `COc1cccc(C(=O)N[C@H]2C[C@H]3CC[C@@H](C2)N3c2ccc(C(=O)NCc3ccc(Cl)nc3)cn2)c1C` [N-[(6-chloropyridin-3-yl)methyl]-6-[3-endo-({[2-methyl-3-(methyloxy)phenyl]carbonyl}amino)-8-azabicycio[3.2.1]oct-8-yl]pyridine-3-carboxamide] gave an IC50 of less than 0.5 µM.
To `CC(=O)c1ccc(N2C3CCC2CC(NC(=O)c2ccc(C(N)=O)c(N[C@@H]4CCOC4)c2)C3)nc1` (stereo partly drawn) [N4-[8-(5-acetylpyridin-2-yl)-8-azabicyclo[3.2.1]oct-3-endo-yl]-2-[(3R)-tetrahydrofuran-3-ylamino]benzene-1,4-dioarboxamide] belongs less than 0.5 µM; to `COc1cccc(CNC(=O)c2ccc(N3[C@@H]4CC[C@H]3C[C@@H](NC(=O)c3cccc(OC)c3C)C4)nc2)c1` [6-[3-endo-({[2-methyl-3-(methyloxy)phenyl]carbonyl}amino)-8-azabicyclo[3.2.1]oct-8-yl]-N-{[3-(methyloxy)phenyl]methyl}pyridine-3-carboxamide], 2 to 10 µM; to `CC(C)[C@H](C)Nc1cc(C(=O)NC2CC3CCC(C2)N3c2ccc(C(=O)C3CC3)cn2)c(Br)cc1C(N)=O` (stereo partly drawn) [2-bromo-N-{8-[5-(cyclopropylcarbonyl)pyridin-2-yl]-8-azabicyclo[3.2.1]oct-3-endo-yl}-5-{[(1S)-1,2-dimethylpropyl]amino}benzene-1,4-dicarboxamide], less than 0.5 µM.
Take `COc1cccc(C(=O)N[C@H]2C[C@H]3CC[C@@H](C2)N3c2ccc(C(=O)NCCCn3ccnc3)cn2)c1C` [N-[3-(1H-imidazol-1-yl)propyl]-6-[3-endo-({[2-methyl-3-(methyloxy)phenyl]carbonyl}amino)-8-azabicyclo[3.2.1]oct-8-yl]pyridine-3-carboxamide]: the IC50 was less than 0.5 µM.
Consider `COc1cccc([C@H](C)NC(=O)c2ccc(N3C4CCC3CC(NC(=O)c3cccc(OC)c3C)C4)nc2)c1` (stereo partly drawn) [6-[3-endo-({[2-methyl-3-(methyloxy)phenyl]carbonyl}amino)-8-azabicyclo[3.2.1]oct-8-yl]-N-{(1S)-1-[3-(methyloxy)phenyl]ethyl}pyridine-3-carboxamide], for which the IC50 is less than 0.5 µM.
In the case of `CCCCNc1cc(C(=O)N[C@H]2C[C@H]3CC[C@@H](C2)N3c2ccc(C(C)=O)cn2)ccc1C(N)=O` [N4-[8-(5-acetylpyridin-2-yl)-8-azabicyclo[3.2.1]oct-3-endo-yl]-2-(butylamino)benzene-1,4-dicarboxamide], the IC50 is less than 0.5 µM.
To `NC(=O)c1cc(Cl)c(C(=O)N[C@H]2C[C@H]3CC[C@@H](C2)N3c2ccc(C(=O)NCc3ccccc3)cn2)cc1Cl` [2,5-dichloro-N-[8-(5-{[(phenylmethyl)amino]carbonyl}pyridin-2-yl)-8-azabicyclo[3.2.1]oct-3-endo-yl]benzene-1,4-dicarboxamide] belongs less than 0.5 µM.
